Assay in all cases: [32P] S1P Binding Assay
Holding throughout (conditions): pH 7.5; 4 °C

Assay [1] addresses T1, Sphingosine 1-phosphate receptor 4 (Homo sapiens, UniProt O95977).
T1 sequence (O95977 whole entry): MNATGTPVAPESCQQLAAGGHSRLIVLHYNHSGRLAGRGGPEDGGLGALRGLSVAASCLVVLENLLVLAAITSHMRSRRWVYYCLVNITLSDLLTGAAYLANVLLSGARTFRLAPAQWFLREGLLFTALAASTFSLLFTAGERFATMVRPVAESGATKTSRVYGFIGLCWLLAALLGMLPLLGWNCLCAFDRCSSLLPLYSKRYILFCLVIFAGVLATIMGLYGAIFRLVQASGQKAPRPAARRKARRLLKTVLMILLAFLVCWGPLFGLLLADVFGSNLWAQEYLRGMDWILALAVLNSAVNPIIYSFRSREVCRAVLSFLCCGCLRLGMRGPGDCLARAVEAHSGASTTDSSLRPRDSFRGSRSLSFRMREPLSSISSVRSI

Assay [2] deals with Sphingosine 1-phosphate receptor 1 (Homo sapiens, UniProt P21453).
Chain of Sphingosine 1-phosphate receptor 1 (P21453 whole entry): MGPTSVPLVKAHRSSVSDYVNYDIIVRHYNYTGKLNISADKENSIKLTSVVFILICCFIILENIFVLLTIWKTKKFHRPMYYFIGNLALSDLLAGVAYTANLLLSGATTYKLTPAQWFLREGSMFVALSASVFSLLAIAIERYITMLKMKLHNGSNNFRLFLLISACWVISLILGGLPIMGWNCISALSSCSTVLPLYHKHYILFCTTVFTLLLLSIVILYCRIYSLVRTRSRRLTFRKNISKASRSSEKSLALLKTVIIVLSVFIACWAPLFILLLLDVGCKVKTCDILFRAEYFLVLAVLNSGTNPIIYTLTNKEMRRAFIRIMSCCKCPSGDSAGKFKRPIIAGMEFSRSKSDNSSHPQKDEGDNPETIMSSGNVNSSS
In assay [3] the target is Sphingosine 1-phosphate receptor 3 (Homo sapiens, UniProt Q99500).
Chain of Sphingosine 1-phosphate receptor 3 (Q99500 whole entry): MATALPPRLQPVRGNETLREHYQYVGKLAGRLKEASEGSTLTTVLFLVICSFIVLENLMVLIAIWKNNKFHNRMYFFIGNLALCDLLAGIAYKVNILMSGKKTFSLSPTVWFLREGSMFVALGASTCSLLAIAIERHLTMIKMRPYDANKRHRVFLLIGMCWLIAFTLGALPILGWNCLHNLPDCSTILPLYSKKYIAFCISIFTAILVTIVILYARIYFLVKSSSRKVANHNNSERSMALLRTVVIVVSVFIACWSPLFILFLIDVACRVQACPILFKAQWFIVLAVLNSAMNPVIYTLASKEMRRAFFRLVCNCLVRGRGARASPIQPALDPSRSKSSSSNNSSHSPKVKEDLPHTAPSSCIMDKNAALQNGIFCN

Broadly, the Ki is the equilibrium dissociation constant of an inhibitor or competing ligand from its target. Low readings indicate higher affinity, high ones lower affinity.

Turning to `CCCCCCCCc1ccc(CC[C@@](N)(CO)COP(=O)(O)O)cc1`, affinity in assay [1] was put at a Ki of 105 nM.
`CCCCCCCCc1ccc(CCC(N)(CO)COP(=O)(O)O)cc1` (stereo unspecified) [{2-amino-3-hydroxy-2-[2-(4-octylphenyl)ethyl]propoxy}phosphonic acid] yielded a Ki in assay [1] of 37 nM.
On the same count and under the same terms, the figure for `CCCCCCCCc1ccc(CC[C@](N)(CO)COP(=O)(O)O)cc1` is 23 nM.
On to `CCCCCCCCCCCCC/C=C\C(O)C(N)COP(=O)(O)O` (stereo unspecified) [{[(4Z)-2-amino-3-hydroxyoctadec-4-en-1-yl]oxy}phosphonic acid], for which the values for the Ki in assay [1], in assay [2] and in assay [3] were 2.7 nM, 1.2 nM and 5.4 nM, respectively.

The values are drawn from BindingDB's records for doi:10.1016/j.bmc.2004.10.008 (Mitsubishi Pharma, 2005).
